ChEMBL document CHEMBL5226293, “Biologically Significant and Recently Isolated Alkaloids from Endophytic Fungi” (2021)
≈ marks a conversion by molar mass, not a printed value.

Experiments:
[1] = system: Mycobacterium tuberculosis; experiment: Antimycobacterial activity against Mycobacterium tuberculosis assessed as growth inhibition incubated for 7 days by microplate alamar blue bioassay; assay type: functional; conditions: 168 h, time 7 day
[2] = system: Mycolicibacterium smegmatis; experiment: Antimycobacterial activity against Mycobacterium smegmatis assessed as growth inhibition incubated for 7 days by microplate alamar blue bioassay; assay type: functional; conditions: 168 h, time 7 day

O=C(/C=C/C=C/c1ccc2c(c1)OCO2)N1CCCCC1 [PIPERINE]
MIC [1]: 2.62 µg/mL (≈ 9.18 µM)
MIC [2]: 1.74 µg/mL (≈ 6.1 µM)
